The record followed here is ChEMBL document CHEMBL1833824, “Effects of cyclization on stability, structure, and activity of α-conotoxin RgIA at the α9α10 nicotinic acetylcholine receptor and GABA(B) receptor” (J Med Chem, 2011).

Structures are written as SMILES. Bridge positions count the residues as written; N and C are the ends. Square brackets hold non-standard residues; d marks the D form. Peptide text beside a SMILES is read from it. Hyp = O=C(O)[C@@H]1C[C@@H](O)CN1

Assay [1] in a line: Inhibition of GABA-B receptor-mediated high voltage-activated Ca2+ channel current in Wistar rat DRG neurons by whole-cell patch clamp assay. The note with it: DRG neuron. (In patch-clamp work, channel activity is measured electrically.)
In another assay the test system is Oocyte. The experiment in a line: Inhibition of human alpha-9/rat alpha-10 nACHR expressed in Xenopus oocytes assessed as inhibition of acetylcholine-induced current by voltage clamp assay relative to RgIA. Type of assay: cell-based. The note with it: dose or concentration not given here.

The term IC50 denotes the point on the concentration scale where inhibition reaches its midpoint. Lower therefore signals inhibition by little substance. One may read the inhibition as the share of the control response that was lost under treatment. Consider `N=C(N)NCCC[C@@H]1NC(=O)[C@H](Cc2ccc(O)cc2)NC(=O)[C@H](CCCNC(=N)N)NC(=O)[C@@H]2CSSC[C@H](NC(=O)CN)C(=O)N[C@@H](CSSC[C@@H](C(=O)O)NC1=O)C(=O)N[C@@H](CO)C(=O)N[C@@H](CC(=O)O)C(=O)N1C[C@H](O)C[C@H]1C(=O)N[C@@H](CCCNC(=N)N)C(=O)N2` (H-GCCSD[Hyp]RCRYRC-OH; disulfide 2-8, 3-12), for which the IC50 in assay [1] came to 20.5 nM. For the same compound, in the assay with Oocyte, the inhibition turned out to be 41%.
